Values joined by “and” are separate entries in the source; they are usually repeats but may differ in a detail not shown here. Equal values may be shown once.

One assay has as its system DOCA hypertensive rats. As to the kind of experiment: Aneurysm formation in the mesenteric artery of DOCA hypertensive rats. The class given is in vivo, rat. Conditions: for Appearance frequency (node count/arteriole count×100), individual rats / Lesion index, individual rats / Appearance frequency, Avg / Lesion index, Avg / Node count, Avg / Node count, individual rats: 7 weeks; for Appearance frequency, Avg / Lesion index, Avg / Node count, Avg: 6 rats; for Node count, individual rats: counted thrice, average. More on the design: Lesion index, individual rats / Lesion index, Avg: scale not given here. The source says: The compounds of the present invention show an effect of inhibiting periarteritis nodosa in a malignant hypertension model rat in which periarteritis nodosa arises in the mesenteric artery and progresses into aneurysm. Among aneurysms, those formed in the mesenteric artery can be treated quantitatively. Thus, the mesenteric artery was taken out and fixed with formalin. Then it was fat-stained and arterioles and aneurysms were counted thrice and the average aneurysm count per arteriole was calculated. To rats with renal hypofunction due to the excision of one kidney, […] saline, having a somewhat higher osmotic pressure than plasma, was given as drinking water and 10 mg/kg of deoxycorticosterone acetate (DOCA) (a mineral corticoid) was subcutaneously administered at intervals of 1 week. Twenty-four male Wistar rats were divided into 4 groups at random. After taking out the left kidney, each animal was allowed to stand and the operative wound was fused. […] The experiment was carried out for 7 weeks. Since the initiation of the experiment, the feed intake, water intake, urine, body weight and blood pressure of each group were measured once every three days.
The average blood pressure exceeded 180 mmHg in the 3rd week and attained 200 mmHg in the 4th week. […] In the 7th week, each animal was dissected and the mesenteric artery was taken out. After treating with formalin, the artery was fat-stained and aneurysms were counted. […] In the high-dose Compound-6 group, the average aneurysm count per arteriole was lowered to 0.27±0.05.
Arterioles and nodes in the mesenteric artery were each counted thrice and the average was calculated.
a) Appearance frequency=node count/arteriole count×100 (%).

For another assay, the system named is male Wistar rats. Kind of assay: Sterol balance and bile acid excretion in rats. Conditions: 10 mg/kg oral once a day. The assay is classed as in vivo, rat. The method, then:
Feed-origin cholesterol and neutral sterol and acidic sterol in the feces of rats, to which the compounds of the present invention had been administered, were determined to monitor sterol balance and changes in the bile acid composition in feces. […] Further, the bile was sampled with the passage of time from rats having been subjected to cholangiostomy and bile acids thereof were determined. […] Male Wistar rats weighting about 250 g were divided into groups each having 6 to 8 animals. […] […] The feces were collected on the days 6 and 10. Then sterols were extracted therefrom in a conventional manner, acidic sterols and neutral sterols were determined. On the other hand, cholesterol in the feed was also determined so as to calculate the amount of feed-origin sterol.

A further assay has as its system db/db mice. As to the kind of experiment: Long-term oral administration to hereditary obese diabetic mice (pancreas function protecting effect). The class given is in vivo, mouse. The source says:
It has been already supported by the results of several experiments that oral administration of the compounds of the present invention enhances peripheral insulin sensitivity and ameliorates metabolic disorders in db/db mice. It is, however, noteworthy that the compounds of the present invention exert an effect in retaining the function pancreatic synthesis of insulin over a long period, which is defective in diabetes. This effect was clearly indicated by serum insulin level and pathologic observation on pancreas of db/db mice to which Compound-14 had been administered over about 1 year. […] Moreover, Compound-14 ameliorated urinary protein throughout the experimental period. […] Namely, there arose a conversion of non insulin-dependent diabetes mellitus into insulin-dependent diabetes mellitus,analogous to human type II diabetes. Even body weight was reduced to a level similar to that of normal litter after the 40th week, the db/db mice lacking leptin receptor underwent overeating and food energy, which could not be anabolized due to the poverty of insulin, was excreted from the body in a large amount.
Since they lack hereditarily leptin […], db/db mice have no appetite control even at satiety. As a result, they suffer from hyperinsulinemia due to overeating and serious obesity, thereby undergoing the onset of diabetes. The compounds of the present invention were orally administered to db/db mice for 40 weeks (from 11 to 51 weeks after birth) (FIG. 2).
As obesity attained a maximum, insulin requirements exceeded insulin production levels. Thus, pancreatic Langerhans' islet β-cells having insulin depot granules therein were mostly degranulated and there arose insulin depot poverty. The pancreatic Langerhans' islet β-cells having been working severely to produce insulin in excess gradually fatigued. […] From 23rd week after birth, it became impossible to anabolize all of the food energy taken in excess due to the insufficient function of insulin, which induced a decrease in body weight. The food energy which could not be anabolized was excreted as urinary glucose. As a result, the urinary glucose increased with a decrease in the blood insulin level. […] Namely, there arose the conversion of noninsulin-dependent diabetes mellitus into insulin-dependent diabetes mellitus in clinical case of humans. […] However, Compound-14 has no function of restoring leptin receptor and thus exerts no effect on the process of the induction of obesity by hyperinsulinemia due to overeating.
Since pancreatic Langerhans' islet β-cells are of key importance in various aspects of diabetes, the ability of the compound of the present invention to maintain the function of these cells over a long period of time, is very important in terms of the treatment and prevention of diabetes.

Take `COc1c(Cl)c(C)c(C=O)c(O)c1C/C=C(C)/C=C/[C@@]1(C)[C@H](C)CCC(=O)[C@@H]1C` [Compound-6, 4-O-methylASC]: in the assay on DOCA hypertensive rats (10 mg/kg/day), the “Appearance frequency (node count/arteriole count×100), individual rats” value is 25.89% and 20.56% and 27.27% and 274.91% and 33.35% and 15.00%; the “Lesion index, individual rats” value was 1 (5×) and 4; the “Appearance frequency, Avg” value is on record as 66.16 ± 41.83%; the “Lesion index, Avg” value is given as 1.50 ± 0.50. Further, in the assay with DOCA hypertensive rats (10 mg/kg/day), the “Node count, Avg” value is reported as 9.27; the “Node count, individual rats” value is 2.33 (2×) and 3.00 and 40.33 and 5.67 and 2.00. Also, in the assay on DOCA hypertensive rats (40 mg/kg/day), the “Appearance frequency (node count/arteriole count×100), individual rats” value was 7.89% and 3.19% and 16.67% and 36.59% and 25.62% and 28.87%; the “Lesion index, individual rats” value is 1; the “Appearance frequency, Avg” value stood at 26.57 ± 5.24 %; the “Lesion index, Avg” value is reported as 1.00 ± 0.00. Moreover, in the assay with DOCA hypertensive rats (40 mg/kg/day), the “Node count, Avg” value was 2.67; the “Node count, individual rats” value was 1.00 and 0.33 and 2.00 and 5.00 and 3.33 and 4.33. Moreover, the “average aneurysm count per arteriole” value with DOCA hypertensive rats (high-dose group (40 mg/kg/day), 7th week) is recorded as 0.27±0.05. For the same compound, in the assay with DOCA hypertensive rats (low-dose group (10 mg/kg/day), 7th week), the “aneurysms per arteriole on average” value is listed as 0.66±0.41. Besides, in the assay with male Wistar rats (Standard feed), the Serum total cholesterol stood at 65.0 ± 2.98 mg/dL, the “Sterol Excretion” value came out at 10.81 mg/200 g wt and the Sterol balance is -2.26 mg. In the assay with male Wistar rats (feed containing cholesterol), the Serum total cholesterol was 77.0 ± 2.19 mg/dL, the “Sterol Excretion” value is 275.52 mg/200 g wt and the Sterol balance result is listed as “+25.93 mg”.

As to `CC(/C=C/[C@@]1(C)[C@H](C)CCC(=O)[C@@H]1C)=C\Cc1c(O)c(C=O)c(C)c(Cl)c1OCC(=O)O` [Compound-14, 4-O-carboxymethylASC], the “urinary glucose compared with the control group” value in the assay with db/db mice (0.1% in feed, oral, 40 weeks (11 to 51 weeks after birth)) is “scarcely excreted into urine and 1/100”. Also, the blood glucose level result in the assay on db/db mice (0.1% in feed, oral, about 40 weeks after birth) is given as “almost comparable to normal litter”. Also, in the assay with db/db mice (long-term oral administration, about 1 year), the “function of pancreatic β-cells (insulin productivity)” value is on record as “completely sustained over 1 year”. In the assay with db/db mice (throughout the experimental period), the urinary protein entry was “ameliorated”.

(Values after patent US6605639B1, “Ligands of nuclear receptor” (Nuclear Receptor Research, Ltd., priority 1998, dated 2003).)
